Laboratory results published in patent US20260232699A1, “COMPOSITIONS OF A CANNABINOID AND A KINASE INHIBITOR FOR THE TREATMENT OF CANCER” (SINOVEDA CANADA INC., priority 2023, published 2026).
≈ marks a conversion by molar mass, not a printed value.

How the values were obtained:
[1] = sorafenib, cited from earlier work
[2] = Clinical study, patients; cited from earlier work
HepG2 cells = assay: rtPCR gene expression analysis (TaqMan array card); format: cell-based, human; details: 6 h at IC50 concentration, relative to negative control
Description: Target cancer gene pathways were analyzed using a custom Taqman® array card exploring 90 unique genes associated with cancer related pathways (Kanehisa, Goto et al. 2010).
Two million HepG2 cells in IMDM media with 20% FBS, and 1% ethanol were seeded in T75 flasks and incubated at 37° C., 7.5% CO2 until 70-80% confluent (approx. […]). […] Untreated cells were included as a negative control. Glyceraldehyde-3-phosphate dehydrogenase (GAPDH) was included as an endogenous control and used for normalization of the data.
Following a 6-hour incubation with the test compounds, the RNA was extracted using Invitrogen's Dynabead mRNA DIRECT kit using the recommended protocol to provide 50 μL of a purified mRNA solution. Fifty μL of RT master mix was mixed into the mRNA solution and the mixture left to react at 37° C. for 60 minutes. Reverse transcriptase inactivation was performed at 95° C. for 5 minutes and the resulting cDNA samples were kept at 4° C. until use. Fifty-five microliters of TaqMan Fast Advance master mix were added to an equal amount of cDNA sample containing 1 μg/100 μl of cDNA, which was loaded into each card reservoir. The cards were centrifuged twice at 1200 RPM for 3 minutes in a Legend XFR centrifuge and the rtPCR reaction was conducted in a QuantStudio7 PCR instrument using the recommended settings with 40 amplification cycles. Data processing was done using ThermoFisher's Connect™ application.

[3] = test system: pool of normal hepatocytes (HC3_23); assay: Normal hepatocyte toxicity, Calcein-AM; format: cell-based; details: Homo sapiens, 48-hour incubation, William's E media
Description: To evaluate the safety margin of the compounds prior to clinical trials, the toxicity of the compounds toward a pool of normal hepatocytes was investigated in-house using a hepatocyte pool obtained from Xenotech (HC3_23). Cells were thawed and plated in 96 well, black walled, gamma-irradiated plates (100 μl) after reconstitution in William's E media with Gibco hepatocellular maintenance supplement. Following an 18-hour recovery period, the media was exchanged with the same media containing 9 serial dilutions of the test compound mixtures (8 to 2000 μg/ml). Experiments were performed in triplicate. Following a 48-hour incubation period, Calcein-AM was added to provide a final concentration of 7 ng/ml to each well and allowed to react for 60 minutes before readings were acquired (excitation 494 nm, emission 517 nm). Data were fit to sigmoidal curves using four-point logistic curve fitting software and the 50% inflection points used for IC50 values.

For `CNC(=O)c1cc(Oc2ccc(NC(=O)Nc3ccc(Cl)c(C(F)(F)F)c3)cc2)ccn1` [Sorafenib], the “Solubility, μg/ml FaSSIF” value ([1]; fasted simulated intestinal fluid, value marked [1]) is listed as 3.3 [1] μg/ml, the “F (oral bioavailability)” value ([1]; value marked [1]) is listed as 0.38-0.49[1] and the “ClH (Hepatic clearance)” value ([1]; value marked [3]) is listed as ~0.051-0.066[3] L/min. The “ClTB (Total body clearance)” value ([1]; value marked [3]) was 0.051-0.066[3] L/min, the “Vd, ss (Volume of distribution at steady state)” value ([1]; value marked [3]) was 1.01-1.3[3] L/kg and the “t½ (Half-life)” value ([1]; value marked [3]) was 14.09-18.23[3] hours. For the same molecule, the Tmax [2] was 2 to 9.5 h, the Total body clearance [2] was 1.83 mL/min/kg and the Volume of distribution [2] was 2.66 L/kg. The “ΔΔCt VEGFA” value (HepG2 cells; Angiogenesis) was −2.101, the “ΔΔCt CAMK1” value (HepG2 cells; Ca Signaling) was −1.249 and the “ΔΔCt BAD” value (HepG2 cells; Cell Cycle) was −1.712. For the same molecule, the “ΔΔCt BAX” value (HepG2 cells; Cell Cycle) was −1.835, the “ΔΔCt BCL2L1” value (HepG2 cells; Cell Cycle) was −1.67 and the “ΔΔCt BECN1” value (HepG2 cells; Cell Cycle) was −1.627. The “ΔΔCt CCND2” value (HepG2 cells; Cell Cycle) was −2.012, the “ΔΔCt CDK2” value (HepG2 cells; Cell Cycle) was −1.072 and the “ΔΔCt CDK4” value (HepG2 cells; Cell Cycle) was −1.315. For the same molecule, the “ΔΔCt CDK6” value (HepG2 cells; Cell Cycle) was −1.273, the “ΔΔCt MAX” value (HepG2 cells; Cell Cycle) was −1.278 and the “ΔΔCt MNT” value (HepG2 cells; Cell Cycle) was −1.155. For the same molecule, the “ΔΔCt CTNNB1” value (HepG2 cells; Cellular Adhesion) was −1.355, the “ΔΔCt MITF” value (HepG2 cells; Drug Resistance) was −2.782 and the “ΔΔCt TEAD2” value (HepG2 cells; HIPPO) was −1.447. For the same molecule, the “ΔΔCt SMO” value (HepG2 cells; Hedge Hog signaling) was −1.125, the “ΔΔCt STAT1” value (HepG2 cells; JAK-STAT) was −1.284 and the “ΔΔCt ERBB2” value (HepG2 cells; MAP kinase) was 2.729. For the same molecule, the “ΔΔCt MAP1LC3A” value (HepG2 cells; MAP kinase) was −1.658, the “ΔΔCt MAP2K2” value (HepG2 cells; MAP kinase) was −1.241 and the “ΔΔCt MAP3K1” value (HepG2 cells; MAP kinase) was −2.162. For the same molecule, the “ΔΔCt MAPK8” value (HepG2 cells; MAP kinase) was −1.245, the “ΔΔCt RASA1” value (HepG2 cells; MAP kinase) was −2.013 and the “ΔΔCt CRK” value (HepG2 cells; PI3K pathway) was −3.778. The “ΔΔCt PIK3C2A” value (HepG2 cells; PI3K pathway) was −2.308, the “ΔΔCt PIK3CA” value (HepG2 cells; PI3K pathway) was −1.501 and the “ΔΔCt PTEN” value (HepG2 cells; PI3K pathway) was −1.165. The “ΔΔCt SMAD2” value (HepG2 cells; TGF signaling) was −1.348, the “ΔΔCt GSK3B” value (HepG2 cells; Wnt signaling) was −1.105 and the “ΔΔCt ROCK1” value (HepG2 cells; Wnt signaling) was −1.495. For the same molecule, the IC50 [3] was 70.1 µg/mL (≈ 151 µM).
